Article PMC5706701, “Development of a homogenous high-throughput assay for inositol hexakisphosphate kinase 1 activity” (PLoS ONE, 2017)
Counter-ions that a name gives are not always drawn. Like-named read-outs stand apart in the source and are kept apart here.

Target: T1, Human IP6K1 (Homo sapiens, UniProt Q92551)
T1 construct: GST (N, cleaved yes); made in house; host or cells: C43 E. coli, pGEX-6P-2
Assay: IP6K1 high-throughput screen of the Sigma LOPAC (ADP-Glo Max, single point);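 note: final compound concentration 10µM in 5% DMSO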
Type: biochemical

[1] = LOPAC single-point screen, ADP-Glo Max raw signal per well
[2] = LOPAC single-point screen, Z-score from raw signal with plate average and StDev
[3] = Sigma LOPAC single-point screen, ADP-Glo Max raw signal per well
[4] = Sigma LOPAC single-point screen, Z-score from plate average and StDev
[5] = LOPAC single-point screen, ADP-Glo Max luminescence raw signal per well
[6] = LOPAC single-point screen, Z-score relative to plate average and StDev
[7] = LOPAC single-point screen, Z-score against plate average and StDev
[8] = LOPAC single-point screen, Z-score from plate average and StDev

T1 sequence (Q92551 whole entry): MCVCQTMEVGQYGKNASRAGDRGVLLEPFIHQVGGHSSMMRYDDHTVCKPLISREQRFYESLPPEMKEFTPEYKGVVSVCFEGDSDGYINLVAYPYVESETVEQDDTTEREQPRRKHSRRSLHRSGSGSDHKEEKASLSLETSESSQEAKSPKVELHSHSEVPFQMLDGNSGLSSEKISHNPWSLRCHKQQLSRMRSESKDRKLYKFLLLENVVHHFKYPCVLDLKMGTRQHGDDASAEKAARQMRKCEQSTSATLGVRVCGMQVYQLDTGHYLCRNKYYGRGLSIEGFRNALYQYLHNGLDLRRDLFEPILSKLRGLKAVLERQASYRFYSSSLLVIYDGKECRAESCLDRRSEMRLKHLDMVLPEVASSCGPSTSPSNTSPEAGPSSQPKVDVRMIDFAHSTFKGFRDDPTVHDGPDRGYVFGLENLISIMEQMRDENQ

SMILES | Raw Signal [1] | Raw Signal [3] | Z-score [4] | further results
CC(=O)CCCCn1c(=O)c2c(ncn2C)n(C)c1=O [Pentoxifylline] | 53271 | – | – | Z-score [2]: -0.1886
C1CCc2nnnn2CC1 [Pentylenetetrazole] | – | 57450 | 0.5136 | –
CCCN1C[C@H](CSC)C[C@@H]2c3cccc4[nH]cc(c34)C[C@H]21 [Pergolide methanesulfonate] | 53757 | – | – | Z-score [2]: -0.4404
OCCN1CCN(CCCN2c3ccccc3Sc3ccc(Cl)cc32)CC1 [Perphenazine] | – | 57078 | 0.4511 | –
NCC(CP(=O)(O)O)c1ccc(Cl)cc1 (stereo not drawn) [Phaclofen] | – | 61057 | 0.9779 | –
NC(=Nc1ccccc1)NC(=O)c1nc(Cl)c(N)nc1N [Phenamil methanesulfonate] | – | – | – | Raw Signal [5]: 52022; Z-score [6]: -0.7775
NNCCc1ccccc1 [Phenelzine sulfate] | – | 58733 | 0.5263 | –
CN(C)CCC(c1ccccc1)c1ccccn1 (stereo not drawn) [Pheniramine maleate] | 57488 | – | – | Z-score [7]: 0.2845
CC(COc1ccccc1)N(CCCl)Cc1ccccc1 (stereo not drawn) [Phenoxybenzamine hydrochloride] | – | 61919 | 0.7056 | –
Cc1ccc(N(CC2=NCCN2)c2cccc(O)c2)cc1 [Phentolamine mesylate] | 54426 | – | – | Z-score [2]: -0.3104
CCCCC1C(=O)N(c2ccccc2)N(c2ccccc2)C1=O [Phenylbutazone] | – | – | – | Z-score [2]: -0.2764
CNC[C@H](O)c1cccc(O)c1 [Phenylephrine hydrochloride] | 56055 | – | – | Z-score [7]: 0.2792
O=C1NC(=O)C(c2ccccc2)(c2ccccc2)N1 [Phenytoin sodium] | – | – | – | Raw Signal [5]: 66782; Z-score [8]: 2.359
O=C(CCc1ccc(O)cc1)c1c(O)cc(O)cc1O [Phloretin] | – | 58655 | 0.5112 | –
CCCCCCCCCCCCCC(=O)O[C@@H]1[C@@H](C)[C@@]2(O)[C@@H](C=C(CO)C[C@]3(O)C(=O)C(C)=C[C@@H]23)[C@@H]2C(C)(C)[C@]12OC(C)=O [Phorbol 12-myristate 13-acetate] | 57693 | – | – | Z-score [7]: 0.3243
C[C@@H]1O[C@@H]1P(=O)(O)O [Phosphomycin disodium] | – | – | – | Raw Signal [5]: 62776; Z-score [8]: 1.408
O=C(O)CP(=O)(O)O [Phosphonoacetic acid] | 54653 | – | – | Z-score [2]: -0.2663
CC(C)C[C@H](NP(=O)([O-])O[C@H]1O[C@H](C)[C@@H](O)[C@H](O)[C@@H]1O)C(=O)N[C@@H](Cc1c[nH]c2ccccc12)C(=O)[O-].[Na+].[Na+] [Phosphoramidon disodium] | 56521 | – | – | Z-score [7]: 0.0966
O=C([O-])CCC(NC(=O)c1ccccc1C(=O)[O-])C(=O)[O-].[Na+].[Na+].[Na+] [Phthalamoyl-L-glutamic acid trisodium] | – | 58114 | 0.4061 | –
Oc1cc(O)cc(/C=C/c2ccc(O)c(O)c2)c1 [Piceatannol] | – | – | – | Raw Signal [5]: 49635; Z-score [6]: -0.7996
COc1ccc(C(=O)NCc2cccnc2)cc1C(=O)NCc1cccnc1 [Picotamide] | 56073 | – | – | Z-score [7]: 0.009557
CC[C@@H]1C(=O)OC[C@@H]1Cc1cncn1C [Pilocarpine nitrate] | – | 59730 | 0.8967 | –

SMILES | Raw Signal [1] | Raw Signal [3] | Z-score [4] | further results
O=c1[nH]c2ccccc2n1C1CCN(CCCC(c2ccc(F)cc2)c2ccc(F)cc2)CC1 [Pimozide] | 53926 | – | – | Z-score [7]: -0.07855
CC(N/C(=N\C#N)Nc1ccncc1)C(C)(C)C (stereo not drawn) [Pinacidil] | 55394 | – | – | Z-score [2]: -0.1224
CC(C)NCC(O)COc1cccc2[nH]ccc12 (stereo not drawn) [Pindolol] | – | – | – | Raw Signal [5]: 62809; Z-score [8]: 1.414
O=S(=O)(O)C1CCNCC1 [Piperidine-4-sulphonic acid] | 54931 | – | – | Z-score [2]: -0.2123
NC(=O)CN1CCCC1=O [Piracetam] | – | 58233 | 0.6451 | –
Cc1nc2ccccn2c(=O)c1CCN1CCC(C(=O)c2ccc(F)cc2)CC1 [Pirenperone] | 53743 | – | – | Z-score [2]: -0.4431
CN1CCN(CC(=O)N2c3ccccc3C(=O)Nc3cccnc32)CC1 [Pirenzepine dihydrochloride] | – | 62871 | 1.33 | –
Cc1ccc(=O)n(-c2ccccc2)c1 [Pirfenidone] | 52089 | – | – | Z-score [2]: -0.3872
O=C(O)/C=C\C(=O)O.c1cnc(N2CCN(Cc3ccc4c(c3)OCO4)CC2)nc1 [Piribedil maleate] | – | 62540 | 1.266 | –
CN1C(C(=O)Nc2ccccn2)=C(O)c2ccccc2S1(=O)=O [Piroxicam] | – | 59564 | 0.8688 | –
COc1cc([C@@H]2c3cc4c(cc3[C@H](O)[C@H]3COC(=O)[C@H]23)OCO4)cc(OC)c1OC [Podophyllotoxin] | – | – | – | Raw Signal [5]: 50929; Z-score [6]: -0.5821
O=C(C1CCCCC1)N1CC(=O)N2CCc3ccccc3C2C1 (stereo not drawn) [Praziquantel] | 53749 | – | – | Z-score [2]: -0.1083
COc1cc2nc(N3CCN(C(=O)c4ccco4)CC3)nc(N)c2cc1OC [Prazosin hydrochloride] | 56945 | – | – | Z-score [7]: 0.179
CC(=O)[C@H]1CC[C@H]2[C@@H]3CC=C4C[C@@H](OS(=O)(=O)[O-])CC[C@]4(C)[C@H]3CC[C@]12C.[Na+] [Pregnenolone sulfate sodium] | – | – | – | Raw Signal [5]: 62981; Z-score [8]: 1.352
CCCNC(C)C(=O)Nc1ccccc1C (stereo not drawn) [Prilocaine hydrochloride] | 55610 | – | – | Z-score [7]: -0.08039
CCC1(c2ccccc2)C(=O)NCNC1=O [Primidone] | – | 58828 | 0.5448 | –
CCN(CC)CCNC(=O)c1ccc(N)cc1 [Procainamide hydrochloride] | – | – | – | Raw Signal [5]: 51793; Z-score [6]: -0.822
CCN(CC)CCOC(=O)c1ccc(N)cc1 [Procaine hydrochloride] | – | 61379 | 1.04 | –
CN1CCN(CCCN2c3ccccc3Sc3ccc(Cl)cc32)CC1 [Prochlorperazine dimaleate] | – | 58817 | 0.5427 | –
CC(=O)[C@H]1CC[C@H]2[C@@H]3CCC4=CC(=O)CC[C@]4(C)[C@H]3CC[C@]12C [Progesterone] | 53663 | – | – | Z-score [2]: -0.1227
CCCN(CCC)C(=O)C(CCC(=O)O)NC(=O)c1ccccc1 (stereo not drawn) [Proglumide] | 53192 | – | – | Z-score [2]: -0.2019
CN(C)CCCN1c2ccccc2Sc2ccccc21 [Promazine hydrochloride] | – | – | – | Raw Signal [5]: 63198; Z-score [8]: 1.394

SMILES | Raw Signal [1] | Raw Signal [3] | Z-score [4] | further results
CC(CN1c2ccccc2Sc2ccccc21)N(C)C (stereo not drawn) [Promethazine hydrochloride] | – | 57662 | 0.5492 | –
CCCNCC(O)COc1ccccc1C(=O)CCc1ccccc1 (stereo not drawn) [Propafenone hydrochloride] | 54187 | – | – | Z-score [7]: -0.0347
CC(C)[N+](C)(CCOC(=O)C1c2ccccc2Oc2ccccc21)C(C)C [Propantheline bromide] | – | 58434 | 0.4683 | –
CCCn1cnc2c1c(=O)n(CCCCC(C)=O)c(=O)n2C [Propentofylline] | 54119 | – | – | Z-score [2]: -0.3701
CCC(=O)c1ccc2c(c1)N(CCCN(C)C)c1ccccc1S2 [Propionylpromazine hydrochloride] | 56049 | – | – | Z-score [7]: 0.004895
CC(C)c1cccc(C(C)C)c1O [Propofol] | – | – | – | Raw Signal: 48098; Z-score: -1.436
C=CC1=C(C)c2cc3[nH]c(cc4nc(cc5[nH]c(cc1n2)c(C)c5CCC(=O)O)C(CCC(=O)O)=C4C)c(C)c3C=C [Protoporphyrin IX disodium] | 54546 | – | – | Z-score [2]: -0.2871
CNCCCC1c2ccccc2C=Cc2ccccc21 [Protriptyline hydrochloride] | 55179 | – | – | Z-score [2]: -0.1641
CC(C)[C@H](CO)Nc1nc(Nc2cccc(Cl)c2)c2ncn(C(C)C)c2n1 [Purvalanol A] | 54135 | – | – | Z-score [7]: -0.04344
NCCCCN [Putrescine dihydrochloride] | 56490 | – | – | Z-score [7]: 0.09057
NC(=O)c1cnccn1 [Pyrazinecarboxamide] | – | 58526 | 0.4861 | –
CN(C)C(=O)Oc1ccc[n+](C)c1 [Pyridostigmine bromide] | 56672 | – | – | Z-score [7]: 0.1259
COc1ccc(CN(CCN(C)C)c2ccccn2)cc1 [Pyrilamine maleate] | – | 60252 | 0.9844 | –
Oc1ccccc1O [Pyrocatechol] | – | – | – | Raw Signal [5]: 49319; Z-score [6]: -1.514
C[C@@H]1C(=O)NC2=Nc3cccc(Cl)c3CN21 [Quazinone] | 53682 | – | – | Z-score [2]: -0.455
O=c1c(O)c(-c2ccc(O)c(O)c2)oc2cc(O)cc(O)c12 [Quercetin dihydrate] | – | – | – | Raw Signal [5]: 52548; Z-score [6]: -0.6753
CCN(CC)CCCC(C)Nc1c2ccc(Cl)cc2nc2ccc(OC)cc12 (stereo not drawn) [Quinacrine dihydrochloride] | – | 60550 | 0.8794 | –
CCCN1CCC[C@@H]2Cc3nc(N)ncc3C[C@H]21.Cl.Cl [Quinelorane dihydrochloride] | – | – | – | Raw Signal [5]: 53110; Z-score [6]: -0.5661
C=C[C@H]1C[N@@]2CC[C@H]1C[C@@H]2[C@@H](O)c1ccnc2ccc(OC)cc12 [Quinidine sulfate] | 56373 | – | – | Z-score [7]: 0.06784
C=C[C@H]1C[N@@]2CC[C@H]1C[C@H]2[C@H](O)c1ccnc2ccc(OC)cc12 [Quinine sulfate] | 53765 | – | – | Z-score [2]: -0.4388
O=C(O)c1cccnc1C(=O)O [Quinolinic acid] | – | – | – | Raw Signal [5]: 51489; Z-score [6]: -0.881
